Source: patent USRE38117E1, “Trioxane dimer compound having antiproliferative and antitumor activities” (Hauser, Inc., priority 1995, dated 2003)

Experiments:
Format in all cases: cell-based
MOLT-4 = assay: NCI 60 cell line screen (SRB), Leukemia; conditions: MOLT-4 (Leukemia)
CAKI-1 = assay: NCI 60 cell line screen (SRB), Renal Cancer; conditions: CAKI-1 (Renal Cancer)
MDA-MB-435 = assay: NCI 60 cell line screen (SRB), Breast Cancer; conditions: MDA-MB-435 (Breast Cancer)
K-562 = assay: NCI 60 cell line screen (SRB), Leukemia; conditions: K-562 (Leukemia)
RPMI-8226 = assay: NCI 60 cell line screen (SRB), Leukemia; conditions: RPMI-8226 (Leukemia)
SF-268 = assay: NCI 60 cell line screen (SRB), CNS Cancer; conditions: SF-268 (CNS Cancer)
HS 578T = assay: NCI 60 cell line screen (SRB), Breast Cancer; conditions: HS 578T (Breast Cancer)
OVCAR-4 = assay: NCI 60 cell line screen (SRB), Ovarian Cancer; conditions: OVCAR-4 (Ovarian Cancer)
SK-MEL-2 = assay: NCI 60 cell line screen (SRB), Melanoma; conditions: SK-MEL-2 (Melanoma)
60 cell line panel = assay: NCI 60 cell line screen, values over the whole panel; conditions: mean value over the cell line panel
786-0 = assay: NCI 60 cell line screen (SRB), Renal Cancer; conditions: 786-0 (Renal Cancer)
M14 = assay: NCI 60 cell line screen (SRB), Melanoma
BT-549 = assay: NCI 60 cell line screen (SRB), Breast Cancer; conditions: BT-549 (Breast Cancer)
HCT-116 = assay: NCI 60 cell line screen (SRB), Colon Cancer; conditions: HCT-116 (Colon Cancer)
HL-60(TB) = assay: NCI 60 cell line screen (SRB), Leukemia
SK-MEL-5 = assay: NCI 60 cell line screen (SRB), Melanoma; conditions: SK-MEL-5 (Melanoma)
EKVX = assay: NCI 60 cell line screen (SRB), Non-Small Cell Lung Cancer
NCI-H322M = assay: as above
UACC-257 = assay: NCI 60 cell line screen (SRB), Melanoma; conditions: UACC-257 (Melanoma)
HOP-92 = assay: NCI 60 cell line screen (SRB), Non-Small Cell Lung Cancer; conditions: HOP-92 (Non-Small Cell Lung Cancer)
MALME-3M = assay: NCI 60 cell line screen (SRB), Melanoma; conditions: MALME-3M (Melanoma)
SNB-19 = assay: NCI 60 cell line screen (SRB), CNS Cancer; conditions: SNB-19 (CNS Cancer)
SR = assay: NCI 60 cell line screen (SRB), Leukemia
MDA-MB231/ATCC = assay: NCI 60 cell line screen (SRB), Breast Cancer
LOX IMVI = assay: NCI 60 cell line screen (SRB), Melanoma
KM12 = assay: NCI 60 cell line screen (SRB), Colon Cancer
SNB-75 = assay: NCI 60 cell line screen (SRB), CNS Cancer; conditions: SNB-75 (CNS Cancer)
IGROVI = assay: NCI 60 cell line screen (SRB), Ovarian Cancer
SN12C = assay: NCI 60 cell line screen (SRB), Renal Cancer
SK-OV-3 = assay: NCI 60 cell line screen (SRB), Ovarian Cancer; conditions: SK-OV-3 (Ovarian Cancer)
UACC-62 = assay: NCI 60 cell line screen (SRB), Melanoma; conditions: UACC-62 (Melanoma)
UO-31 = assay: NCI 60 cell line screen (SRB), Renal Cancer; conditions: UO-31 (Renal Cancer)

Compound: COC1OC2(C)CCC3CCCC(CCOCCC4CCCC5CCC6(C)OOC45C(OC)O6)C31OO2 (stereo not drawn) [Compound 6, Trioxane Ether Dimer]
- Log10GI50 (MOLT-4): −6.27 M
- Log10LC50 (MOLT-4; listed as Ether Dimer): >−4.00 M
- Log10TGI (MOLT-4; listed as Ether Dimer): >−4.00 M
- Log10LC50 (MOLT-4; listed as either dimer): greater than −400. M
- Log10TGI (MOLT-4; listed as ether dimer): 4.50 M
- Log10GI50 (CAKI-1): −5.44 M
- Log10LC50 (CAKI-1): >−4.00 M
- Log10TGI (CAKI-1): >−4.00 M
- Log10GI50 (MDA-MB-435): −6.38 M
- Log10LC50 (MDA-MB-435): >−4.00 M
- Log10TGI (MDA-MB-435): >−4.00 M
- Log10GI50 (K-562): −6.75 M
- Log10LC50 (K-562): >−4.00 M
- Log10TGI (K-562): >−4.00 M
- Log10GI50 (RPMI-8226): −6.69 M
- Log10LC50 (RPMI-8226): >−4.00 M
- Log10TGI (RPMI-8226): −5.47 M
- Log10GI50 (SF-268): −5.07 M
- Log10LC50 (SF-268): >−4.00 M
- Log10TGI (SF-268): >−4.00 M
- Log10LC50 (HS 578T): >−4.00 M
- Log10TGI (HS 578T): >−4.00 M
- Log10GI50 (OVCAR-4): −5.11 M
- Log10LC50 (OVCAR-4): >−4.00 M
- Log10TGI (OVCAR-4): >−4.00 M
- Log10GI50 (SK-MEL-2): −5.86 M
- Log10LC50 (SK-MEL-2): >−4.00 M
- Log10TGI (SK-MEL-2): −4.13 M
- Log10LC50 MG MID (60 cell line panel): −4.05 M
- Log10TGI MG MID (60 cell line panel): −4.26 M
- Log10GI50 (786-0): −5.65 M
- Log10LC50 (786-0): >−4.00 M
- Log10TGI (786-0): −4.53 M
- Log10GI50 (M14): −5.59 M
- Log10LC50 (M14): >−4.00 M
- Log10TGI (M14): >−4.00 M
- Log10GI50 (BT-549): −5.89 M
- Log10LC50 (BT-549): >−4.00 M
- Log10TGI (BT-549): >−4.00 M
- Log10GI50 (HCT-116): −6.98 M
- Log10LC50 (HCT-116): >−4.00 M
- Log10TGI (HCT-116): >−4.00 M
- Log10GI50 (HL-60(TB)): −6.48 M
- Log10LC50 (HL-60(TB)): >−4.00 M
- Log10TGI (HL-60(TB)): −5.77 M
- Log10GI50 (SK-MEL-5): −7.39 M
- Log10LC50 (SK-MEL-5): −4.15 M
- Log10TGI (SK-MEL-5): −4.90 M
- Log10GI50 (EKVX): −5.56 M
- Log10LC50 (EKVX): >−4.00 M
- Log10TGI (EKVX): >−4.00 M
- Log10GI50 (NCI-H322M): >−4.00 M
- Log10LC50 (NCI-H322M): >−4.00 M
- Log10TGI (NCI-H322M): >−4.00 M
- Log10GI50 (UACC-257): −5.68 M
- Log10LC50 (UACC-257): >−4.00 M
- Log10TGI (UACC-257): >−4.00 M
- Log10GI50 (HOP-92): −5.51 M
- Log10LC50 (HOP-92): >−4.00 M
- Log10TGI (HOP-92): −4.17 M
- Log10GI50 (MALME-3M): −5.69 M
- Log10LC50 (MALME-3M): >−4.00 M
- Log10TGI (MALME-3M): >−4.00 M
- Log10GI50 (SNB-19): −5.01 M
- Log10LC50 (SNB-19): >−4.00 M
- Log10TGI (SNB-19): >−4.00 M
- Log10GI50 (SR): −7.19 M
- Log10LC50 (SR): >−4.00 M
- Log10TGI (SR): −5.93 M
- Log10GI50 (MDA-MB231/ATCC): −5.25 M
- Log10LC50 (MDA-MB231/ATCC): >−4.00 M
- Log10TGI (MDA-MB231/ATCC): >−4.00 M
- Log10GI50 (LOX IMVI): −6.52 M
- Log10LC50 (LOX IMVI): −4.33 M
- Log10TGI (LOX IMVI): −4.83 M
- Log10GI50 (KM12): −6.85 M
- Log10LC50 (KM12): >−4.00 M
- Log10TGI (KM12): −4.28 M
- Log10LC50 (SNB-75): >−4.00 M
- Log10TGI (SNB-75): >−4.00 M
- Log10GI50 (IGROVI): −5.37 M
- Log10LC50 (IGROVI): >−4.00 M
- Log10TGI (IGROVI): −4.13 M
- Log10GI50 (SN12C): −5.46 M
- Log10LC50 (SN12C): >−4.00 M
- Log10TGI (SN12C): >−4.00 M
- Log10LC50 (SK-OV-3): >−4.00 M
- Log10TGI (SK-OV-3): >−4.00 M
- Log10GI50 (UACC-62): −6.46 M
- Log10LC50 (UACC-62): >−4.00 M
- Log10TGI (UACC-62): >−4.00 M
- Log10GI50 (UO-31): −6.37 M
- Log10LC50 (UO-31): −4.38 M
